Data published in EP0540143B1, “Compounds and methods for inhibition of HIV and related viruses” (priority 1991, dated 1993).

Columns and labels:
[1] = titration pKa (66% DMF/H2O)
HIV-1 [2] = assay: combination with AZT against HIV-1 in CEM cells, technique of Prichard and Shipman; format: cell-based; conditions: combination of AZT and the compound
Description: The combination was evaluated against HIV-1 in CEM cells using the technique of Prichard and Shipman (Antiviral Research, 14, 181-206 (1990)).

physchem = conditions: 66% dmf/h2o
HIV virus = assay: Test A (XTT), MT4 cells infected with HIV; format: cell-based; conditions: for % inhibition: Test A
Description: (§1) Tests A, B, C, and D (XTT)
(§2) MT4 cells in a medium of RPMI 1640, 5% FCS, penicillin/streptomycin are adjusted to 2x10^5 cells/ml and seeded into microplates (96 wells/plate) 100 µl cell suspension/well giving 2x10^4 cells/well. The compound to be tested is made into a 10 mg/ml mixture in DMSO and stored at -20°C. The compound in DMSO is diluted with medium containing 10% DMSO in a 10-fold dilution series to give 1 mg/ml, 10 mg/ml, and […] solutions. Further dilutions to 400, 40, 4 and 0.4 mg/ml are made in medium containing microplates. Fifty µl of the 400, 40, and 4 mg/ml are transferred to the cell-containing microplates with a multi-channel pipette (final concentration: 100, 10, and 1 mg/ml). Finally, 50 µl of virus suspension is added to each well (with a repetitive "Eppendorf" multipipett). Each plate has at least six wells with the following: [Test A: HIV virus; Test B: HIV(II) virus; Test C: SIV virus; Test D: No virus]; with no drug (virus control) and six wells without virus (medium control). The plate is put into a plastic bag and incubated for six days in CO2 atmosphere. To each well in the plate is added 50 µl of XTT ((2,3-bis[2-methoxy-4-nitro-5-sulfophenyl]-5-[(phenylamino)carbonyl]-2H-tetrazolium hydroxide), (1 mg/ml 0.01-0.02 mM N-metyl-phenazonium methosulfate). After six hours of incubation in CO2 atmosphere the plates are covered with adhesive plate sealers and gently mixed on a vortex. Optical densities are determined at a wavelength of 450 nm and a reference wavelength of 650 nm. The percent reduction of cytotoxocity caused by the virus infection is calculated as follows: (OD450 compound - OD450 inf cells)/(OD450 uninf cells - OD450 inf cells)x 100 [formula]

HIV(II) virus = assay: Test B (XTT), MT4 cells infected with HIV(II); format: cell-based; conditions: Human immunodeficiency virus 1, MT4, Test B
Description: as §1, §2

SIV virus = assay: Test C (XTT), MT4 cells infected with SIV; format: cell-based; conditions: Simian immunodeficiency virus, MT4, Test C
Description: as §1, §2

HIV-1 [3] = assay: Test E (HIV-1 RT), RT activity in supernatant of infected MT-4/H9 cells; format: cell-based; conditions: Human immunodeficiency virus 1, H9, Test E
Description: (§3) Tests E, F, G, H (HIV-IRT, HIV-2RT, SIVRT, no virus)
(§4) MT-4/H9-cells are adjusted to 2x10^5 cells/ml medium (RPMI 1640, 5% FCS, penicillin/streptomycin) and seeded into microplates (96 wells/plate) […] cell suspension/well giving 2 x 10^4 cells/well. The compound to be tested is made 10 mg/ml in DMSO = stock solution (stored at -20°C). The compound dissolved in DMSO is diluted 25 times in medium to give 400 mg/ml. Further dilutions to 40 mg/ml and 4 mg/ml are made in microplates.
(§5) 50 µl of the dilutions 400 mg/ml, 40 mg/ml and 4mg/ml are transferred to the "cell-containing" microplate with a multichannel pipette. […]
(§6) Finally 50 µl of virus suspension is added to each well (with a repetitive "Eppendorf multipett"). [Test E-HIV-1; Test F-HIV-2; Test G-SIV; Test H-no virus].
(§7) Each plate has at least four wells with virus but no drug (virus control) and two wells without virus (medium control). The plate is put into a plastic bag to avoid evaporation and incubated for six days in CO2-atmosphere. 10 µl supernatant from each well is transferred with a multichannel pipette into a new microplate to which 40 ml VDB, (50 mM Tris-HCl pH = 7.6, 35 mM KCl, 4 mM DTT, 1 mM EDTA, 1.3% Triton X-100), have been added to each well. The addition of 50 ml RT-reaction mix, (10 ml culture supernatant, 40 ml VDB and 50 ml reaction mixture giving a final concentration of: 100 mM Tris-HCl pH = 7.6, 100 mM KCl, 4 mM MgCl2, 4 mM DTT, 275 mg/ml BSA/ml, 5 mg (rA)n(dT)12-18/ml and 0.3 mM ^3H dTTP (specific activity 18.000 cpm/pmol)) gives a final volume of […]/well. After 60 minutes of incubation the whole assay volume is transferred by use of a cell harvester to a filter mat prewetted with 5% TCA. The filter is washed in 5% TCA and rinsed once in ethanol. After drying the filter mat at 60°C for 30 min. each filter (96/mat) is punched out and put into counting vials 2 ml of scintillation fluid is added and the samples are counted (1 min) or the whole filter mat is put into a plastic bag, 10 ml of scintillation fluid is added and the filter mat is counted in a Beckman Betaplate counter. Percent reduction of RT activity is determined by comparing RT activity for virus control with the RT activity measured for each dilution of the compound.

HIV-2 = assay: Test F (HIV-2 RT), RT activity in supernatant of infected MT-4/H9 cells; format: cell-based; conditions: Human immunodeficiency virus 2, H9, Test F
Description: as §3, §4, §5, §6, §7

SIV = assay: Test G (SIV RT), RT activity in supernatant of infected MT-4/H9 cells; format: cell-based; conditions: Simian immunodeficiency virus
Description: as §3, §4
50 µl of the dilutions 400 mg/ml, 40 mg/ml and 4mg/ml are transferred to the "cell-containing" microplate with a multichannel pipette. (Final concentration: 100, 10 and 1 mg/ml).
as §6, §7

recombinant HIV-RT = recombinant HIV-RT (Human immunodeficiency virus type 1 group M subtype B, UniProt P04585); assay: Test I (HIVRT (rAdt)), direct inhibition of recombinant HIV-RT; format: biochemical
Description: The compounds were tested for direct inhibitory activity on HIV-RT in a volume of […] recombinant HIV-RT (diluted in virus disruption buffer to give 200.000 cpm).
100 mM Tris-HCl pH 7.6, 100 mM KCl, 4 mM MgCl2, 4 mM DTT, 275 mg/ml BSA, 0.5 mg (rA)n(dT)12-18 and 0.3 mM ^3H- dTTP (specific activity […]). After 60 minutess of incubation 40 ml in duplicate were spotted on paper discs and washed in 5% TCA. After rinsing the paper discs in ethanol they were dried and counted in scintillation fluid.

MT4 cells = assay: Test D (XTT), MT4 cells, no virus; format: cell-based; conditions: Homo sapiens
Description: as §1, §2

[4] = Human immunodeficiency virus 1, MT4, Test A
[5] = Human immunodeficiency virus 1, MT4, Test A, 10 µg/ml
[6] = Human immunodeficiency virus 1, MT4, Test A, 100 µg/ml

SMILES | inhibition at 10 µg/mL (HIV virus; [5]) [%] | inhibition at 100 µg/mL (HIV virus; [6]) [%] | inhibition at 0.1 µg/mL (HIV(II) virus) [%] | inhibition at 1 µg/mL (HIV(II) virus) [%] | inhibition at 10 µg/mL (HIV(II) virus) [%] | inhibition at 100 µg/mL (HIV(II) virus) [%] | inhibition at 1 µg/mL (SIV virus) [%] | inhibition at 10 µg/mL (SIV virus) [%] | inhibition at 100 µg/mL (SIV virus) [%] | inhibition at 1 µg/mL (HIV-1 [3]) [%] | inhibition at 10 µg/mL (HIV-1 [3]) [%] | inhibition at 100 µg/mL (HIV-1 [3]) [%] | inhibition at 1 µg/mL (HIV-2) [%] | inhibition at 10 µg/mL (HIV-2) [%] | inhibition at 100 µg/mL (HIV-2) [%] | inhibition at 0.1 µg/mL (recombinant HIV-RT) [%] | inhibition at 1 µg/mL (recombinant HIV-RT) [%] | inhibition at 10 µg/mL (recombinant HIV-RT) [%] | other results
NCCc1c(F)cccc1F [Example 312, 2-(2,6-Difluorophenyl)ethylamine] | – | – | – | – | – | – | – | – | – | – | – | – | – | – | – | – | – | – | pKa [1]: 9.06
Cc1cn([C@H]2C[C@H](N=[N+]=[N-])[C@@H](CO)O2)c(=O)[nH]c1=O [AZT, reference compound] | – | – | – | – | – | – | – | – | – | – | – | – | – | – | – | – | – | – | concentration at the peak of synergy (HIV-1 [2]): 0.005 µg/mL
S=C(NCCc1ccccc1)Nc1nccs1 [drawing 35] | – | – | – | – | – | – | – | – | – | – | – | – | – | – | – | – | – | – | concentration at the peak of synergy (HIV-1 [2]): 0.5 µg/mL; effect of the combination (HIV-1 [2]): synergistic effect
NCCc1ncccc1F [Example 417, 2-aminoethyl-3-fluoropyridine] | – | – | – | – | – | – | – | – | – | – | – | – | – | – | – | – | – | – | pKa (physchem): 9.56
S=C(NCCc1ccccc1)Nc1nc2ccc(Cl)cc2s1 | 63 | 68 | 24 | 9 | 67 | 27 | 0 | 0 | 21 | 1 | 51 | 96 | 1 | 79 | 98 | 12 | 18 | 18 | inhibition at 1 µg/mL (HIV virus; [4]): 0%; % inhibition (HIV virus; 10 µg/ml): 67%; % inhibition (HIV virus; 100 µg/ml): 49%; inhibition at 1 µg/mL (SIV): 1%; inhibition at 10 µg/mL (SIV): 12%; inhibition at 100 µg/mL (SIV): 90%
S=C(NCCC1=CCCCC1)Nc1ccc(Cl)nn1 [Example 336, N-[2-(1-cyclohexenyl)ethyl]-N'-[3-(6-chloro)pyridazinyl]thiourea] | – | – | – | – | – | – | – | – | – | – | – | – | – | – | – | – | – | – | pKa ([1]; pKa, 66% DMF): 12.8
S=C(NCCc1ccccc1)Nc1nc2c(Cl)cccc2s1 | 19 | 100 | 18 | 22 | 100 | 36 | 0 | 2 | 17 | 11 | 8 | 97 | 6 | 72 | 93 | 9 | 6 | 1 | inhibition at 1 µg/mL (HIV virus; [4]): 4%; inhibition at 0.1 µg/mL (HIV-2): 1%; inhibition at 1 µg/mL (SIV): 1%; inhibition at 10 µg/mL (SIV): 1%; inhibition at 100 µg/mL (SIV): 87%
Fc1cccc(F)c1CCNC(=S)Nc1ccc(Cl)nn1 [Example 337, N-[2-(2,6-difluorophenyl)ethyl]-N'-[3-(6-chloro)pyridazinyl] thiourea] | – | – | – | – | – | – | – | – | – | – | – | – | – | – | – | – | – | – | pKa ([1]; pKa, 66% DMF): 12.7
Cc1nc(NC(=S)NCCc2ccccc2)sc1C | 85 | 99 | 13 | 100 | 100 | 85 | 0 | 1 | 0 | 23 | 91 | 94 | 92 | 61 | 93 | 34 | 39 | 38 | inhibition at 0.1 µg/mL (HIV virus; Human immunodeficiency virus 1, MT4, Test A, 0.1 µg/ml): 7%; % inhibition (HIV virus; 10 µg/ml): 88%; % inhibition (HIV virus; 100 µg/ml): 100%; inhibition at 10 µg/mL (MT4 cells; 10 µg/ml): 0%; inhibition at 100 µg/mL (MT4 cells; 100 µg/ml): 0%; inhibition at 0.1 µg/mL (HIV-1 [3]; 0.1 µg/ml): 1%; inhibition at 0.1 µg/mL (HIV-2): 1%
